Data published in patent EP4806891A1 (Kangbaida (Sichuan) Biotechnology Co., Ltd., priority 2023, dated 2025).

Each molecule was assayed against T1, HEK-Blue-hTLR7 cells (Homo sapiens, UniProt Q9NYK1) (assay: HEK-Blue-hTLR7 cell inhibition assay). Settings: R848 0.8 µM, 16 h, OD 620 nm, read-out: TLR7 IC50.
T1 construct: expressed in transfected cells; host or cells: HEK-Blue-hTLR7 cells (HEK293-derived reporter line)
T1 sequence (Q9NYK1 27-1049): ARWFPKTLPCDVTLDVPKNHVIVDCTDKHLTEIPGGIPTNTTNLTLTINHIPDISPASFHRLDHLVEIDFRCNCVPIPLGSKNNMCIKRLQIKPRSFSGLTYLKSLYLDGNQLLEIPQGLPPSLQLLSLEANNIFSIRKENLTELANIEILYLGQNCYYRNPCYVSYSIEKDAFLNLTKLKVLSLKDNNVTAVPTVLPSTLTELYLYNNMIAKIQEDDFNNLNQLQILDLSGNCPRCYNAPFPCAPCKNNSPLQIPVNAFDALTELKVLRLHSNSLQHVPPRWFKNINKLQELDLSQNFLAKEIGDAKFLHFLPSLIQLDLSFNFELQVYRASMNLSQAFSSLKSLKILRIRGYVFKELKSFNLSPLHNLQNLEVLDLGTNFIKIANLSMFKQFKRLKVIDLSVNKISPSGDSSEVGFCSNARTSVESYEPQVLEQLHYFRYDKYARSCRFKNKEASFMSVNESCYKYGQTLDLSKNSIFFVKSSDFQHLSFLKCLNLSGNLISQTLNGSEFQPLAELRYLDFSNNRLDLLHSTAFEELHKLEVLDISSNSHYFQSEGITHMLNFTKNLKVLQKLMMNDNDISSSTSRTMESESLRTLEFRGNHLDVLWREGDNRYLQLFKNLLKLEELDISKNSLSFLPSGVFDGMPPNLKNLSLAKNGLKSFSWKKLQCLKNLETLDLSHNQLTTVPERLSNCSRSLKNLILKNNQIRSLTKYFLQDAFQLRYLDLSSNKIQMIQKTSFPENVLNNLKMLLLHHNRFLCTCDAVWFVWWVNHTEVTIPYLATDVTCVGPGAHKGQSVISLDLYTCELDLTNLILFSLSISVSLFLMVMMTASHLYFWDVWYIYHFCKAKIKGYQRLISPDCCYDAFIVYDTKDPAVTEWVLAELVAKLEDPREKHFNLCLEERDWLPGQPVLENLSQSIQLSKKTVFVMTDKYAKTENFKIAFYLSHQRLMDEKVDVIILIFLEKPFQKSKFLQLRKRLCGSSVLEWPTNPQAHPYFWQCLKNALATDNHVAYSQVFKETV
Format: cell-based
Procedure, shortened: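 Cells were pre-incubated 4 h, then co-treated 16 h at 37 °C with compound (10 doses, 0.5–10000 nM final) plus R848 (0.8 µM for TLR7, 3 µM for TLR8) or ODN2006 (1 µM, TLR9). Reporter OD620 gave inhibition relative to DMSO blank and agonist-only controls; IC50 came from curve fitting.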
`CN1CCC(Cc2nnc([C@]34CN(c5ccc(C#N)c6ncccc56)C[C@@]3(C(F)(F)F)C4)n2C)CC1` [Compound 38, 5-((1S,5R)-1-(4-methyl-5-((1-methylpiperidin-4-yl)methyl)-4H-1,2,4-triazol-3-yl)-5-(trifluoromethyl)-3-azabicyclo[3.1.0]hexan-3-yl)quinoline-8-carbonitrile] showed an IC50 of less than 1 µM.
`CN1CCC(F)(c2nnc([C@]34CN(c5ccc(C#N)n6nccc56)C[C@@]3(C(F)(F)F)C4)o2)CC1` [Compound 90, 4-((1S,5R)-1-(5-(4-fluoro-1-methylpiperidin-4-yl)-1,3,4-oxadiazol-2-yl)-5-(trifluoromethyl)-3-azabicyclo[3.1.0]hexan-3-yl)pyrazolo[1,5-a]pyridine-7-carbonitrile] gave an IC50 of less than 0.1 µM.
With `CN1CCC(Oc2nnc([C@]34CN(c5ccc(C#N)n6ncc(F)c56)C[C@@]3(C(F)(F)F)C4)o2)CC1` [Compound 31, 3-fluoro-4-((1S,5R)-1-(5-((1-methylpiperidin-4-yl)oxy)-1,3,4-oxadiazol-2-yl)-5-(trifluoromethyl)-3-azabicyclo[3.1.0]hexan-3-yl)pyrazolo[1,5-a]pyridine-7-carbonitrile] the IC50 was less than 0.1 µM.
`N#Cc1ccc(N2C[C@]3(c4nnc(CCN5CCOCC5)o4)C[C@]3(C(F)(F)F)C2)c2cccnc12` [Compound 43, 5-((1S,5R)-1-(5-(morpholinoethyl)-1,3,4-oxadiazol-2-yl)-5-(trifluoromethyl)-3-azabicyclo[3.1.0]hexan-3-yl)quinoline-8-carbonitrile] gave an IC50 of less than 1 µM.
`CN1CCC(c2nnc([C@]34CN(c5c(Br)cc(C#N)n6ncc(Br)c56)C[C@@]3(C(F)(F)F)C4)o2)CC1` [Compound 85, 3,5-dibromo-4-((1S,5R)-1-(5-(1-methylpiperidin-4-yl)-1,3,4-oxadiazol-2-yl)-5-(trifluoromethyl)-3-azabicyclo[3.1.0]hexan-3-yl)pyrazolo[1,5-a]pyridine-7-carbonitrile] showed an IC50 greater than 1 µM.
In the case of `N#Cc1ccc(N2C[C@]3(c4nnc(CN5CCOCC5)o4)C[C@]3(C(F)(F)F)C2)c2cccnc12` [Compound 40, 5-((1S,5R)-1-(5-(morpholinomethyl)-1,3,4-oxadiazol-2-yl)-5-(trifluoromethyl)-3-azabicyclo[3.1.0]hexan-3-yl)quinoline-8-carbonitrile], the IC50 is reported as less than 1 µM.
`CN1CCC(c2nnc([C@]34CN(c5ccc(C#N)c6ncccc56)C[C@@]3(C(F)(F)F)C4)[nH]2)CC1` [Compound 9, 5-((1S,5R)-1-(5-(1-methylpiperidin-4-yl)-4H-1,2,4-triazol-3-yl)-5-(trifluoromethyl)-3-azabicyclo[3.1.0]hexan-3-yl)quinoline-8-carbonitrile] was tested, and the IC50 was less than 0.1 µM.
`N#Cc1ccc(N2C[C@]3(c4nnc(C5(F)CCNC5)o4)C[C@]3(C(F)(F)F)C2)c2cccnc12` (stereo partly drawn) [Compound 46, 5-((1S,5R)-1-(5-(3-fluoropyrrolidin-3-yl)-1,3,4-oxadiazol-2-yl)-5-(trifluoromethyl)-3-azabicyclo[3.1.0]hexan-3-yl)quinoline-8-carbonitrile] gave an IC50 of less than 0.1 µM.
In the case of `FC(F)(F)c1ccc(N2C[C@]3(c4nnc(C5(F)CCNCC5)o4)C[C@]3(C(F)(F)F)C2)c2cccnc12` [Compound 3, 2-(4-fluoropiperidin-4-yl)-5-((1S,5R)-5-(trifluoromethyl)-3-(8-(trifluoromethyl)quinolin-5-yl)-3-azabicyclo[3.1.0]hexan-1-yl)-1,3,4-oxadiazole], the IC50 is reported as less than 0.1 µM.
For `CN1CC(c2nnc([C@]34CN(c5ccc(C#N)c6ncccc56)C[C@@]3(C(F)(F)F)C4)o2)C1` [Compound 39, 5-((1S,5R)-1-(5-(1-methylazetidin-3-yl)-1,3,4-oxadiazol-2-yl)-5-(trifluoromethyl)-3-azabicyclo[3.1.0]hexan-3-yl)quinoline-8-carbonitrile], the IC50 was less than 0.1 µM.
With `CN1CCC(Oc2nnc([C@]34CN(c5ccc(C#N)c6ncccc56)C[C@@]3(C(F)(F)F)C4)o2)CC1` [Compound 15, 5-((1S,5R)-1-(5-((1-methylpiperidin-4-yl)oxy)-1,3,4-oxadiazol-2-yl)-5-(trifluoromethyl)-3-azabicyclo[3.1.0]hexan-3-yl)quinoline-8-carbonitrile] the IC50 was less than 0.1 µM.
Work on `CC1(C)CC(Cc2nnc([C@]34CN(c5ccc(C#N)c6ncccc56)C[C@@]3(C(F)(F)F)C4)o2)CC(C)(C)N1` [Compound 26, 5-((1S,5R)-1-(5-((2,2,6,6-tetramethylpiperidin-4-yl)methyl)-1,3,4-oxadiazol-2-yl)-5-(trifluoromethyl)-3-azabicyclo[3.1.0]hexan-3-yl)quinoline-8-carbonitrile] yielded an IC50 of less than 0.1 µM.
Work on `CN1CC(F)(c2nnc([C@]34CN(c5ccc(C#N)c6ncccc56)C[C@@]3(C(F)(F)F)C4)o2)C1` [Compound 49, 5-((1S,5R)-1-(5-(3-fluoro-1-methylazetidin-3-yl)-1,3,4-oxadiazol-2-yl)-5-(trifluoromethyl)-3-azabicyclo[3.1.0]hexan-3-yl)quinoline-8-carbonitrile] yielded an IC50 of less than 0.1 µM.
Molecule `CN1CCC(c2nnc([C@]34CN(c5c(Br)cc(C#N)n6nccc56)C[C@@]3(C(F)(F)F)C4)o2)CC1` [Compound 86, 5-bromo-4-((1S,5R)-1-(5-(1-methylpiperidin-4-yl)-1,3,4-oxadiazol-2-yl)-5-(trifluoromethyl)-3-azabicyclo[3.1.0]hexan-3-yl)pyrazolo[1,5-a]pyridine-7-carbonitrile] has an IC50 of less than 1 µM.
With `CN1CC2CC1CC2c1nnc([C@]23CN(c4ccc(C#N)c5ncccc45)C[C@@]2(C(F)(F)F)C3)o1` (stereo partly drawn) [Compound 14, 5-((1S,5R)-1-(5-(2-methyl-2-azabicyclo[2.2.1]heptan-5-yl)-1,3,4-oxadiazol-2-yl)-5-(trifluoromethyl)-3-azabicyclo[3.1.0]hexan-3-yl)quinoline-8-carbonitrile] the IC50 was less than 0.1 µM.
In the case of `CN1CCC(c2nnc([C@]34CN(c5ccc(C#N)c6ncccc56)C[C@@]3(C(F)(F)F)C4)o2)C(F)C1` (stereo partly drawn) [Compound 50, 5-((1S,5R)-1-(5-(3-fluoro-1-methylpiperidin-4-yl)-1,3,4-oxadiazol-2-yl)-5-(trifluoromethyl)-3-azabicyclo[3.1.0]hexan-3-yl)quinoline-8-carbonitrile], the IC50 is reported as less than 0.1 µM.
`CN1CCC(c2nnc([C@]34CN(c5ccc(C(F)(F)F)n6nccc56)C[C@@]3(C(F)(F)F)C4)o2)CC1` [Compound 87, 2-(1-methylpiperidin-4-yl)-5-((1S,5R)-5-(trifluoromethyl)-3-(7-(trifluoromethyl)pyrazolo[1,5-a]pyridin-4-yl)-3-azabicyclo[3.1.0]hexan-1-yl)-1,3,4-oxadiazole] was tested, and the IC50 was less than 0.1 µM.
`N#Cc1ccc(N2C[C@]3(c4nnc(C56CCC(N)(CC5)CC6)o4)C[C@]3(C(F)(F)F)C2)c2cccnc12` [Compound 52, 5-((1S,5R)-1-(5-(4-aminobicyclo[2.2.2]octan-1-yl)-1,3,4-oxadiazol-2-yl)-5-(trifluoromethyl)-3-azabicyclo[3.1.0]hexan-3-yl)quinoline-8-carbonitrile] showed an IC50 of less than 0.1 µM.
`FC(F)(F)Oc1ccc(N2C[C@]3(c4nnc(C5(F)CCNCC5)o4)C[C@]3(C(F)(F)F)C2)c2cccnc12` [Compound 96, 2-(4-fluoropiperidin-4-yl)-5-((1S,5R)-3-(8-(trifluoromethoxy)quinolin-5-yl)-5-(trifluoromethyl)-3-azabicyclo[3.1.0]hexan-1-yl)-1,3,4-oxadiazole] gave an IC50 of less than 0.1 µM.
Work on `FC(F)(F)c1ccc(N2C[C@]3(c4nnc(C5CCN(CC6CC6)CC5)o4)C[C@]3(C(F)(F)F)C2)c2cccnc12` [Compound 76, 2-(1-(cyclopropylmethyl)piperidin-4-yl)-5-((1S,5R)-5-(trifluoromethyl)-3-(8-(trifluoromethyl)quinolin-5-yl)-3-azabicyclo[3.1.0]hexan-1-yl)-1,3,4-oxadiazole] yielded an IC50 of less than 0.1 µM.
Molecule `CN1CCC(c2nnc([C@]34CN(c5ccc(C#N)c6ncccc56)C[C@@]3(C(F)(F)F)C4)o2)CC1=O` (stereo partly shown) [Compound 34] has an IC50 of less than 0.1 µM.
In the case of `CN1CC2(CCC(c3nnc([C@]45CN(c6ccc(C#N)c7ncccc67)C[C@@]4(C(F)(F)F)C5)o3)CC2)C1` [Compound 13, 5-((1S,5R)-1-(5-(2-methyl-2-azaspiro[3.5]nonan-7-yl)-1,3,4-oxadiazol-2-yl)-5-(trifluoromethyl)-3-azabicyclo[3.1.0]hexan-3-yl)quinoline-8-carbonitrile], the IC50 is reported as less than 0.1 µM.
